Assay results taken from patent publication US20130123481A1, “MODIFIED NUCLEOSIDES, NUCLEOTIDES, AND NUCLEIC ACIDS, AND USES THEREOF” (MODERNA THERAPEUTICS, priority 2011, published 2013).

Tested on: human embryonic kidney 293 (HEK293) cells
Test: Toxicity of Nucleoside Triphosphates (NTPs), CYTO TOX-GLO assay
Assay type: cell-based
Conditions: human, 4 h, 2.1 nM
Protocol: The cytotoxicity of natural and modified nucleoside triphosphates (NTPs) alone or in combination with other bases, was analyzed in human embryonic kidney 293 (HEK293) cells in the absence of transfection reagent. […] 10 ul of the NTPs outlined in Table 12 were combined with 10 ul of lipid dilution and incubated for 30 minutes to form a complex before 80 ul of the HEK293 cell suspension was added to the NTP complex. Natural and modified NTPs were transfected at a concentration of 2.1 nM, 21 nM, 210 nM, 2.1 um, 21 uM, 210 um or 2.1 mM. NTPs in combination were transfected at a total concentration of NTPs of 8.4 nM, 84 nM, 840 nM, 8.4 uM, 84 uM, 840 uM and 8.4 mM.

| SMILES | percent of viable cells |
| --- | --- |
| Nc1nc2nc[nH]c2c(=O)[nH]1 [Guanine] | 93.33% |

Same assay, conditions: human, 4 h, 21 nM

| SMILES | percent of viable cells |
| --- | --- |
| Nc1nc2nc[nH]c2c(=O)[nH]1 [Guanine] | 92.84% |

Same assay, conditions: human, 4 h, 210 nM

| SMILES | percent of viable cells |
| --- | --- |
| Nc1nc2nc[nH]c2c(=O)[nH]1 [Guanine] | 90.00% |

Same assay, conditions: human, 4 h, 2.1 uM

| SMILES | percent of viable cells |
| --- | --- |
| Nc1nc2nc[nH]c2c(=O)[nH]1 [Guanine] | 90.60% |

Same assay, conditions: human, 4 h, 21 uM

| SMILES | percent of viable cells |
| --- | --- |
| Nc1nc2nc[nH]c2c(=O)[nH]1 [Guanine] | 91.36% |

Same assay, conditions: human, 4 h, 210 uM

| SMILES | percent of viable cells |
| --- | --- |
| Nc1nc2nc[nH]c2c(=O)[nH]1 [Guanine] | 90.14% |

Same assay, conditions: human, 4 h, 2.1 mM

| SMILES | percent of viable cells |
| --- | --- |
| Nc1nc2nc[nH]c2c(=O)[nH]1 [Guanine] | 90.96% |

Same assay, conditions: human, 24 h, 2.1 nM

| SMILES | percent of viable cells |
| --- | --- |
| Nc1nc2nc[nH]c2c(=O)[nH]1 [Guanine] | 85.41% |

Same assay, conditions: human, 24 h, 21 nM

| SMILES | percent of viable cells |
| --- | --- |
| Nc1nc2nc[nH]c2c(=O)[nH]1 [Guanine] | 85.50% |

Same assay, conditions: human, 24 h, 210 nM

| SMILES | percent of viable cells |
| --- | --- |
| Nc1nc2nc[nH]c2c(=O)[nH]1 [Guanine] | 86.35% |

Same assay, conditions: human, 24 h, 2.1 uM

| SMILES | percent of viable cells |
| --- | --- |
| Nc1nc2nc[nH]c2c(=O)[nH]1 [Guanine] | 86.13% |

Same assay, conditions: human, 24 h, 21 uM

| SMILES | percent of viable cells |
| --- | --- |
| Nc1nc2nc[nH]c2c(=O)[nH]1 [Guanine] | 85.93% |

Same assay, conditions: human, 24 h, 210 uM

| SMILES | percent of viable cells |
| --- | --- |
| Nc1nc2nc[nH]c2c(=O)[nH]1 [Guanine] | 85.86% |

Same assay, conditions: human, 24 h, 2.1 mM

| SMILES | percent of viable cells |
| --- | --- |
| Nc1nc2nc[nH]c2c(=O)[nH]1 [Guanine] | 86.37% |

Same assay, conditions: human, 48 h, 2.1 nM

| SMILES | percent of viable cells |
| --- | --- |
| Nc1nc2nc[nH]c2c(=O)[nH]1 [Guanine] | 89.57% |

Same assay, conditions: human, 48 h, 21 nM

| SMILES | percent of viable cells |
| --- | --- |
| Nc1nc2nc[nH]c2c(=O)[nH]1 [Guanine] | 87.92% |

Same assay, conditions: human, 48 h, 210 nM

| SMILES | percent of viable cells |
| --- | --- |
| Nc1nc2nc[nH]c2c(=O)[nH]1 [Guanine] | 85.31% |

Same assay, conditions: human, 48 h, 2.1 uM

| SMILES | percent of viable cells |
| --- | --- |
| Nc1nc2nc[nH]c2c(=O)[nH]1 [Guanine] | 87.89% |

Same assay, conditions: human, 48 h, 21 uM

| SMILES | percent of viable cells |
| --- | --- |
| Nc1nc2nc[nH]c2c(=O)[nH]1 [Guanine] | 88.18% |

Same assay, conditions: human, 48 h, 210 uM

| SMILES | percent of viable cells |
| --- | --- |
| Nc1nc2nc[nH]c2c(=O)[nH]1 [Guanine] | 87.05% |

Same assay, conditions: human, 48 h, 2.1 mM

| SMILES | percent of viable cells |
| --- | --- |
| Nc1nc2nc[nH]c2c(=O)[nH]1 [Guanine] | 93.83% |

Same assay, conditions: human, 72 h, 2.1 nM

| SMILES | percent of viable cells |
| --- | --- |
| Nc1nc2nc[nH]c2c(=O)[nH]1 [Guanine] | 93.72% |

Same assay, conditions: human, 72 h, 21 nM

| SMILES | percent of viable cells |
| --- | --- |
| Nc1nc2nc[nH]c2c(=O)[nH]1 [Guanine] | 92.55% |

Same assay, conditions: human, 72 h, 210 nM

| SMILES | percent of viable cells |
| --- | --- |
| Nc1nc2nc[nH]c2c(=O)[nH]1 [Guanine] | 92.19% |

Same assay, conditions: human, 72 h, 2.1 uM

| SMILES | percent of viable cells |
| --- | --- |
| Nc1nc2nc[nH]c2c(=O)[nH]1 [Guanine] | 92.30% |

Same assay, conditions: human, 72 h, 21 uM

| SMILES | percent of viable cells |
| --- | --- |
| Nc1nc2nc[nH]c2c(=O)[nH]1 [Guanine] | 92.39% |

Same assay, conditions: human, 72 h, 210 uM

| SMILES | percent of viable cells |
| --- | --- |
| Nc1nc2nc[nH]c2c(=O)[nH]1 [Guanine] | 91.41% |

Same assay, conditions: human, 72 h, 2.1 mM

| SMILES | percent of viable cells |
| --- | --- |
| Nc1nc2nc[nH]c2c(=O)[nH]1 [Guanine] | 97.04% |

Tested on: peripheral blood mononuclear cells (PBMC)
Test: In Vitro Screening in PBMC - G-CSF protein expression
Assay type: cell-based, human
Conditions: PBMC Donor 1; 500 ng mRNA, 0.4 uL Lipofectamine 2000
Text: The supernatant was harvested and stored frozen until analyzed by ELISA to determine the G-CSF protein expression, and the induction of the cytokines interferon-alpha (IFN-α) and tumor necrosis factor alpha (TNF-α).

| SMILES | G-CSF Protein Expression |
| --- | --- |
| COC(=O)C=Cc1cn([C@@H]2O[C@H](CO)[C@@H](O)[C@H]2O)c(=O)[nH]c1=O [5-(2-carbomethoxyvinyl)uridine] | 77 pg/mL |
| Nc1nc(=O)n([C@@H]2O[C@H](CO)[C@@H](O)[C@H]2O)cc1C=O [5-formylcytidine] | 18 pg/mL |
| Cn1cnc2c(ncn2[C@@H]2O[C@H](CO)[C@@H](O)[C@H]2O)c1=N [N1-methyladenosine] | 182 pg/mL |
| CNc1ncnc2c1ncn2[C@@H]1O[C@H](CO)[C@@H](O)[C@H]1O [N6-methyladenosine] | 100 pg/mL |

Same assay, conditions: PBMC Donor 2; 500 ng mRNA

| SMILES | G-CSF Protein Expression |
| --- | --- |
| COC(=O)C=Cc1cn([C@@H]2O[C@H](CO)[C@@H](O)[C@H]2O)c(=O)[nH]c1=O [5-(2-carbomethoxyvinyl)uridine] | 286 pg/mL |
| Nc1nc(=O)n([C@@H]2O[C@H](CO)[C@@H](O)[C@H]2O)cc1C=O [5-formylcytidine] | 205 pg/mL |
| Cn1cnc2c(ncn2[C@@H]2O[C@H](CO)[C@@H](O)[C@H]2O)c1=N [N1-methyladenosine] | 177 pg/mL |
| CNc1ncnc2c1ncn2[C@@H]1O[C@H](CO)[C@@H](O)[C@H]1O [N6-methyladenosine] | 168 pg/mL |

Same assay, conditions: PBMC Donor 3; 500 ng mRNA

| SMILES | G-CSF Protein Expression |
| --- | --- |
| COC(=O)C=Cc1cn([C@@H]2O[C@H](CO)[C@@H](O)[C@H]2O)c(=O)[nH]c1=O [5-(2-carbomethoxyvinyl)uridine] | 177 pg/mL |
| Nc1nc(=O)n([C@@H]2O[C@H](CO)[C@@H](O)[C@H]2O)cc1C=O [5-formylcytidine] | 23 pg/mL |
| Cn1cnc2c(ncn2[C@@H]2O[C@H](CO)[C@@H](O)[C@H]2O)c1=N [N1-methyladenosine] | 191 pg/mL |
| CNc1ncnc2c1ncn2[C@@H]1O[C@H](CO)[C@@H](O)[C@H]1O [N6-methyladenosine] | 200 pg/mL |
